Test results from publication PMC12485897, “Characterization of the thermophilic xylanase Fsa02490Xyn from the hyperthermophile Fervidibacter sacchari belonging to glycoside hydrolase family 10” (FEBS Open Bio, 2025).

Tested on: T1, Fsa02490Xyn
T1 construct: TAT signal peptide removed (mature 430 residues, 48 kDa); N-terminal 6xHis tag, GB1 solubility tag and TEV site kept (~53 kDa expected); codon-optimized, pET21b, E. coli T7 Express; monomer
Assay: para-nitrophenol release, absorbance […] nm; Lineweaver-Burk plot
Type: biochemical, Fervidibacter sacchari
Conditions: pH 7.5, 90 °C, 11 min, 0.697 μM enzyme

In the case of `O=[N+]([O-])c1ccc(O[C@@H]2OC[C@@H](O[C@@H]3OC[C@@H](O)[C@H](O)[C@H]3O)[C@H](O)[C@H]2O)cc1` [pNPX2], the Km is reported as 2380 µM.
